According to US20110105389A1 (priority 2009, published 2011):
Read-outs that look alike come from different tables or passages of the source.

Assays:
CYP2D6 = CYP2D6 (Homo sapiens, UniProt P10635); assay: Cytochrome P450 inhibition, Method B6; conditions: read-out: IC50 CYP 2D6; Table 4b; dextromethorphan used as substrate
[1] = target: T1, GHS-R1a receptor (HEK293 cells expressing GHS-R1a receptor) (Homo sapiens, UniProt Q92847); assay: Fluorescence functional assay (ghrelin receptor), Method B2, agonist and antagonist mode; type: cell-based; conditions: functional activity as an antagonist at the ghrelin receptor, Methods B2 and B3
T1 construct: host or cells: HEK293
T1 sequence (Q92847 whole entry): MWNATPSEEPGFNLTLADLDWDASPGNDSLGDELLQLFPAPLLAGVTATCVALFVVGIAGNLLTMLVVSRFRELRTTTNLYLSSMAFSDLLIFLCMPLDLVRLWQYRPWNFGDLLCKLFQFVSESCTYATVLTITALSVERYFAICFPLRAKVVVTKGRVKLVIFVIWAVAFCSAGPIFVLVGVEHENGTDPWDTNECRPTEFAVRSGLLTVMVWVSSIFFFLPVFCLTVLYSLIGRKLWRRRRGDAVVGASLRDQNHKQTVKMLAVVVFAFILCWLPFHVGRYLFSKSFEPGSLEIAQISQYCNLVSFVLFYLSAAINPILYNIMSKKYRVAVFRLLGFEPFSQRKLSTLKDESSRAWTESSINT
How it was run: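 Calcium flux read by ImageTrak epifluorescence in HEK293 cells stably expressing GHS-R1a, loaded 1 h at 37 °C with Calcium-3 dye; buffer HBSS/20 mM Hepes, pH 7.4, with probenecid and BSA. Agonists injected after 10 s baseline, read 50 s more; antagonists 3 min. Sigmoidal fits gave EC50 or IC50.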

CYP3A4 = CYP3A4 (Homo sapiens, UniProt P08684); assay: Cytochrome P450 inhibition, Method B6 (two substrates); conditions: read-out: IC50 CYP 3A4; Table 4b; midazolam used as substrate
Sequence of CYP3A4 (P08684 whole entry): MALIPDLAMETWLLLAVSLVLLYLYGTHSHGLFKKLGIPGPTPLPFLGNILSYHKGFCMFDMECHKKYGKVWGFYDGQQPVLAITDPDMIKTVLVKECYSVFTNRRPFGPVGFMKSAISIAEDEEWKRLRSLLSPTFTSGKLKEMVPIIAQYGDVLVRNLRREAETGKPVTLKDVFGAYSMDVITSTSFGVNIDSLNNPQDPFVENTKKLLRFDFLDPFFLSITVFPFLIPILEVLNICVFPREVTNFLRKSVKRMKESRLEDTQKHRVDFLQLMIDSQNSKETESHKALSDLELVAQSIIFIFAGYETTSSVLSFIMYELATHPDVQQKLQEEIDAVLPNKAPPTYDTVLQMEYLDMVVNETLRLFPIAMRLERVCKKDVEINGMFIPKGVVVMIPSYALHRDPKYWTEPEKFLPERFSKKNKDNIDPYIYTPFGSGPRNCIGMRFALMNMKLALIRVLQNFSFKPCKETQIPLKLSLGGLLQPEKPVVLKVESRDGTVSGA

[2] = cited from earlier work
[3] = Metabolic stability in human liver microsomes, Method B8; type: in vitro ADME; conditions: human liver microsomes 0.8 mg/mL, 5 μM compound, 37° C.
How it was run: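 Pooled human liver microsomes (15 mixed-sex donors) at 0.8 mg/mL in 100 mM potassium phosphate, pH 7.4, with 1.5 mM NADPH and 8 mM MgCl2. Compounds tested in duplicate at a single 5 μM (0.05% DMSO), incubated at 37° C.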

[4] = target: T2, human ghrelin receptor (GRLN, growth hormone secretagogue receptor, hGHS-R1a) (Homo sapiens, UniProt Q92847); assay: Competitive radioligand binding assay (ghrelin receptor), Method B1; conditions: Ghrelin receptor binding activity, Method B1
T2 construct: purchased PerkinElmer BioSignal #RBHGHSM, lot#1887; host or cells: HEK-293 cells, stably transfected (membranes)
T2 sequence (Q92847 whole entry): as the sequence (Q92847 whole entry) above
How it was run: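 Filtration competition format: bound radioactivity counted after GF/C harvesting and cold 50 mM Tris-HCl washes. Incubation lasted 30 min at room temperature in Hepes pH 7.4 buffer with Ca2+, Mg2+, EDTA and 0.4% BSA (DMSO ≤0.1% final); values from variable-slope non-linear regression.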

[5] = test system: rat stomach fundus strips; assay: Ex-vivo potency evaluation on the rat stomach fundus (inhibition of ghrelin-induced contractility), Method B10; conditions: EFS
Procedure: B10. Ex-vivo Potency Evaluation on the Rat Stomach Fundus
Fundus strips (approximately 0.4×1 cm) were cut from the stomach of adult male Wistar rats parallel to the circular muscle fibers. They were placed between two platinum ring electrodes, 1 cm apart (Radnoti, ADlnstruments, USA) in 10 ml tissue baths containing Krebs solution bubbled with 5% CO2 in O2 and maintained at 37° C. Tissues were suspended under 1.5 g resting tension. Changes of tension were measured isometrically with force transducers and recorded with a PowerLab 8/30 data acquisition system (ADlnstruments, USA). Tissues were allowed to equilibrate for 60 min during which time bath solutions were changed every 15 min.
EFS was achieved by applying 0.5 ms pulses, 5 Hz frequency, at a maximally effective voltage of 70 V. EFS was applied for 30 sec at 3 min intervals for a 30 min initial period. This initial period was separated by a […] interval with wash out of the bath solution. Then, a second period of stimulation was started. […] Responses to the agents were measured and expressed as % of the mean of three or four pre-drug responses to EFS. All compounds were dissolved at 1 mM in distilled water or MeOH, as stock solutions.
IC50 values for the inhibition of ghrelin-induced contractility by representative compounds of the invention are presented in Table 7.

Sequence of CYP2D6 (P10635 whole entry): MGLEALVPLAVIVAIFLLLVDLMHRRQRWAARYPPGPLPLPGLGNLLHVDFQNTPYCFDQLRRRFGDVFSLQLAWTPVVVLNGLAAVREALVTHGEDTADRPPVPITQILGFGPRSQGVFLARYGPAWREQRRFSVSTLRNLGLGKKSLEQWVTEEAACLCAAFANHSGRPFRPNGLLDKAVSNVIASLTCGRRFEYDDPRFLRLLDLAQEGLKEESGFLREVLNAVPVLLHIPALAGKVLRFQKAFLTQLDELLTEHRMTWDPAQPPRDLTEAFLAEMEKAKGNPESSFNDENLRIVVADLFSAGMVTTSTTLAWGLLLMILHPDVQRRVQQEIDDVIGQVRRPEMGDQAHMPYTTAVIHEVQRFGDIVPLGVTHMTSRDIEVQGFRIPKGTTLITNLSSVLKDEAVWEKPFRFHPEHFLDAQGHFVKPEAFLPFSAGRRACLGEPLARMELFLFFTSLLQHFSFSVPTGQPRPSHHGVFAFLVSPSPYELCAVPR

SMILES	IC50 (CYP2D6) [µM]	Antagonist Activity [1]	IC50 (CYP3A4) [µM]	known plasma protein binding value ([2]; plasma) [%]	HLM, metabolic stability in human liver microsomes [3] [μL/min/mg protein]	known plasma protein binding value ([2]; reference controls) [%]	IC50 [4] [µM]	Ki [4] [µM]	IC50 [5] [µM]
CC(C)[C@@H]1NCCOc2ccccc2CC[C@@H](C)NC(=O)[C@@H](Cc2ccsc2)NC(=O)[C@H](C(C)O)N(C)C1=O (some centres unmarked) [Compound 1399]	> 20	B (B = 1-10 nM)	2.3	–	–	–	–	–	–
CC(=O)CC(c1ccccc1)c1c(O)c2ccccc2oc1=O (centres unmarked) [warfarin]	–	–	–	~98	–	–	–	–	–
CC(C)[C@@H]1NCCOc2ccccc2CC[C@@H](C)NC(=O)[C@@H](Cc2c[nH]c3ccccc23)NC(=O)[C@H](C(C)O)N(C)C1=O (some centres unmarked) [Compound 1375]	> 20	B (B = 1-10 nM)	8.8	–	58.4	–	–	–	–
CC(C)[C@@H]1NCCOc2ccccc2/C=C/CNC(=O)[C@@H](Cc2cccc(O)c2)NC(=O)[C@H](C(C)O)N(C)C1=O (some centres unmarked) [Compound 1350]	7.9	C (C = 10-100 nM)	5.7	–	–	–	–	–	–
CC(C)[C@@H]1NCCOc2ccccc2/C=C/CNC(=O)[C@@H](Cc2cccc(Cl)c2)NC(=O)[C@H](C(C)O)N(C)C1=O (some centres unmarked) [Compound 1432]	5.2	B (B = 1-10 nM)	1.2	–	25.1	–	–	–	–
C=C[C@H]1C[N@@]2CC[C@H]1C[C@H]2[C@H](O)c1ccnc2ccc(OC)cc12 [quinine]	–	–	–	–	–	~35	–	–	–
CCC(C)[C@@H]1NCCOc2ccccc2/C=C/CNC(=O)[C@@H](Cc2ccccc2)NC(=O)[C@H](C(C)O)N(C)C1=O (some centres unmarked) [Compound 1318]	> 5	C (C = 10-100 nM)	3.9	–	–	–	0.01 to 0.1	0.001 to 0.01	–
CCC(C)[C@@H]1NCCOc2ccccc2/C=C/CNC(=O)[C@@H](Cc2ccccc2F)NC(=O)[C@H](C(C)O)N(C)C1=O (some centres unmarked) [Compound 1325]	> 5	C (C = 10-100 nM)	> 3.1	–	–	–	0.01 to 0.1	0.01 to 0.1	0.029
COc1ccccc1C[C@H]1NC(=O)[C@H](C(C)O)N(C)C(=O)[C@H](C(C)C)NCCOc2ccccc2CC[C@@H](C)NC1=O (some centres unmarked) [Compound 1418]	14.5	B (B = 1-10 nM)	0.9	–	32.2	–	–	–	–
COC(C)[C@@H]1NCCOc2ccccc2/C=C/CNC(=O)[C@@H](Cc2ccccc2)NC(=O)[C@H](C(C)O)N(C)C1=O (some centres unmarked) [Compound 1324]	> 5	D (D = 100-500 nM)	> 5	–	–	–	–	0.01 to 0.1	–
CC(C)[C@@H]1NCCOc2ccccc2CC[C@@H](C)NC(=O)[C@@H](Cc2ccc3ccccc3n2)NC(=O)[C@H](C(C)O)N(C)C1=O (some centres unmarked) [Compound 1413]	14.7	B (B = 1-10 nM)	1	–	–	–	–	–	–
